Consider 7 compounds from patent US7109380B2, “Cyclopentenedione antifungal compounds and methods for their use” (The University of Mississippi, priority 2004, dated 2006).

Usually MFC stands for the smallest concentration meeting the test's criterion for killing the fungus. A word on the melting point: it is the temperature of the solid-liquid transition.

Data set [1] has as its system Cryptococcus neoformans ATCC 90113. The data set is described as follows: In vitro antifungal susceptibility testing (modified NCCLS method). It is filed as cell-based. Conditions: for IC50: read-out: IC50 (50% inhibitory concentration).
The test system of the next data set is C. albicans ATCC 90028. Nature of the data set: In vitro antimicrobial assay (modified NCCLS), Candida media pH 4.5. It is filed as cell-based, Candida albicans. The following applies: C. albicans ATCC 90028, pH 4.5, Table 3; for IC50: read-out: IC50 (50% inhibitory concentration).
The test system of another data set is C. glabrata ATCC 90030. The data set is described as above. It is filed as cell-based, Candida glabrata. Conditions: C. glabrata ATCC 90030, pH 4.5; for IC50: read-out: IC50 (50% inhibitory concentration).
The test system of a further data set is C. krusei ATCC 6258. The data set is described as above. It is filed as cell-based, Candida krusei. The following applies: C. krusei ATCC 6258, pH 4.5; for IC50: Pichia kudriavzevii, ATCC6258, read-out: IC50 (50% inhibitory concentration).
In data set [2] the test system is M. intracellulare ATCC 23068. The data set is described as follows: In vitro antibacterial assay (modified method of Franzblau, Alamar Blue). The format is cell-based. The following applies: Mycobacterium intracellulare, ATCC23068, M. intracellulare ATCC 23068; for IC50: read-out: IC50 (50% inhibitory concentration); for MBC: read-out: MBC (Minimum Bactericidal Concentration). For orientation: Alamar Blue is a resazurin reagent that responds to reducing activity.

Data set [3] concerns several cancer cell lines. The following applies: background; cited from earlier work.
In the next data set the target is human chymase (Homo sapiens, UniProt P23946). The following applies: background; cited from earlier work.
Chain of human chymase (P23946 22-247): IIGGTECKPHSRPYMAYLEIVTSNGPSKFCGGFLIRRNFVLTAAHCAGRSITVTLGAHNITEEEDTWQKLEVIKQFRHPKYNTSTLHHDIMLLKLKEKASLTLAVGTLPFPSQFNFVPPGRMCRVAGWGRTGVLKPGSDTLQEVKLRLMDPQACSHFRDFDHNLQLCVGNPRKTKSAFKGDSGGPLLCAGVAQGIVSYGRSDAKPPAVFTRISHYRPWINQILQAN
The test system of data set [4] is Candida albicans ATCC 90028. Nature of the data set: In vitro antifungal susceptibility testing (modified NCCLS method), media pH 7.3. The format is cell-based. Conditions: Candida albicans ATCC 90028, Table 1.
Data set [5] relates to wheat leaf rust caused by Puccinia recondite. The following applies: background; cited from earlier work.
Setting [6] is: Cryptococcus neoformans, ATCC90113, Cr. neoformans ATCC 90113, Table 3.
[7] abbreviates: Candida albicans, ATCC90028, read-out: MFC.
Setting [8] is: Candida albicans, ATCC90028, read-out: MIC.
Setting [9] is: Nakaseomyces glabratus, ATCC90030.
[10] abbreviates: Nakaseomyces glabratus, ATCC90030, read-out: MFC.
Setting [11] is: Nakaseomyces glabratus, ATCC90030, read-out: MIC.
Setting [12] is: Cr. neoformans ATCC 90113, Table 3.
Setting [13] is: Cryptococcus neoformans ATCC 90113, Table 1.

Converted amounts (≈) assume the structure as drawn. “And” between values parts separate entries of the source, which are not always exact repeats. Identical values can stand only once. Like-named read-outs stand apart in the source and are kept apart here.

On to `CCOC(/C=C/c1ccccc1)=C1/C(=O)C=C(C)C1=O` [Compound 7], for which the IC50 turned out to be 2 µg/mL (≈ 7.45 µM) in [1] (setting [6]); 2 µg/mL (≈ 7.45 µM) in the data set on C. albicans ATCC 90028 (Candida albicans, ATCC90028); 4.5 µg/mL (≈ 16.8 µM) in the data set on C. glabrata ATCC 90030 (setting [9]); 8 µg/mL (≈ 29.8 µM) in the data set on C. krusei ATCC 6258; 7.5 µg/mL (≈ 28 µM) in [2]. In addition, the MIC in [1] (Cryptococcus neoformans, ATCC90113, Cr. neoformans ATCC 90113, Table 3, read-out: MIC) worked out at 20 µg/mL (≈ 74.5 µM); in the data set on C. albicans ATCC 90028 (setting [8]), 5 µg/mL (≈ 18.6 µM); in the data set on C. glabrata ATCC 90030 (setting [11]), 10 µg/mL (≈ 37.3 µM); in data set [2], 20 µg/mL (≈ 74.5 µM). In addition, the MFC in the data set on C. albicans ATCC 90028 (setting [7]) is 10 µg/mL (≈ 37.3 µM); with C. glabrata ATCC 90030 (setting [10]) it was 20 µg/mL (≈ 74.5 µM). In data set [2], the MBC was 20 µg/mL (≈ 74.5 µM).
Consider `COC(/C=C/c1ccccc1)=C1C(=O)C(OC)=C(OC)C1=O` [methyllinderone], for which the “Cytotoxicity (in words)” value in [3] is listed as “cytotoxic”. In addition, the “Inhibition of human chymase (in words)” value on human chymase is recorded as “moderate inhibitor”.
For the compound `COC(C)=C1C(=O)C=C(C)C1=O` [Compound 6, 2-(1-methoxy-ethylidene)-4-methyl-cyclopent-4-ene-1,3-dione], the IC50 in data set [1] (setting [6]) was found to be 5 µg/mL (≈ 30.1 µM); with C. albicans ATCC 90028 (Candida albicans, ATCC90028), 2 µg/mL (≈ 12 µM); in the data set with C. glabrata ATCC 90030 (setting [9]), 3.5 µg/mL (≈ 21.1 µM); in the data set with C. krusei ATCC 6258, 10 µg/mL (≈ 60.2 µM). Besides, the MFC in the data set with C. albicans ATCC 90028 (setting [7]) turned out to be 20 µg/mL (≈ 120 µM). Besides, the MIC in the data set with C. albicans ATCC 90028 (setting [8]) and in the data set with C. glabrata ATCC 90030 (setting [11]) was 5 µg/mL (≈ 30.1 µM) in each case.
Regarding `C[C@@H]1[C@H](O)[C@@H](C)/C=C/C=C/C=C/C=C/C=C/C=C/C=C/[C@H](O[C@@H]2O[C@H](C)[C@@H](O)[C@H](N)[C@@H]2O)C[C@@H]2O[C@](O)(C[C@@H](O)C[C@@H](O)[C@H](O)CC[C@@H](O)C[C@@H](O)CC(=O)O[C@H]1C)C[C@H](O)[C@H]2C(=O)O` [Amphotericin B, reference compound], the “MFC (Minimum Fungicidal Concentration)” value is 5.00 µg/mL (≈ 5.41 µM) in data set [4] and 2.5 µg/mL (≈ 2.71 µM) in data set [1] (setting [13]). In addition, the entries for the “MIC (Minimum Inhibitory Concentration)” value in data set [4] and in [1] (setting [13]) were 2.50 µg/mL (≈ 2.71 µM) and 2.5 µg/mL (≈ 2.71 µM), respectively. Further, the “IC50 (50% inhibitory concentration)” value amounted to 0.50 µg/mL (≈ 0.541 µM) in data set [1] (setting [12]), 0.45 µg/mL (≈ 0.487 µM) with C. albicans ATCC 90028, 0.20 µg/mL (≈ 0.216 µM) with C. glabrata ATCC 90030 and 0.45 µg/mL (≈ 0.487 µM) in the data set with C. krusei ATCC 6258. The MFC (in [1] (setting [12]); against C. albicans ATCC 90028; against C. glabrata ATCC 90030; in the data set on C. krusei ATCC 6258) was 1.25 µg/mL (≈ 1.35 µM) throughout. For the same compound, the MIC (in data set [1] (setting [12]); in the data set on C. albicans ATCC 90028; in the data set on C. glabrata ATCC 90030; with C. krusei ATCC 6258) was 1.25 µg/mL (≈ 1.35 µM) in each case.
In the case of `COC1=CC(=O)/C(=C(\C=C\c2ccccc2)OC)C1=O` [methyllucidone], the “Antifungal activity against wheat leaf rust (in words)” value in data set [5] is reported as “moderately antifungal activity”.
Regarding `CC1=CC(=O)/C(=C(O)/C=C/c2ccccc2)C1=O` [Compound 2, coruscanone B], the melting point is 125 °C and 124 °C. Besides, the MIC in [4] (ATCC90028, read-out: MIC (Minimum Inhibitory Concentration)) turned out to be 50 µg/mL (≈ 208 µM). The IC50 in [1] (setting [6]) worked out at 20 µg/mL (≈ 83.2 µM). The IC50 with C. albicans ATCC 90028 (Candida albicans, ATCC90028) was determined as 1 µg/mL (≈ 4.16 µM). For the same compound, the MFC with C. albicans ATCC 90028 (setting [7]) turned out to be 5 µg/mL (≈ 20.8 µM). In addition, the MIC in the data set on C. albicans ATCC 90028 (setting [8]) was 2.5 µg/mL (≈ 10.4 µM). Further, the IC50 in the data set on C. glabrata ATCC 90030 (setting [9]) was 1.5 µg/mL (≈ 6.24 µM). Also, in the data set with C. glabrata ATCC 90030 (setting [10]), the MFC stood at 5 µg/mL (≈ 20.8 µM). In addition, the MIC in the data set on C. glabrata ATCC 90030 (setting [11]) was found to be 2.5 µg/mL (≈ 10.4 µM). Also, the IC50 in the data set on C. krusei ATCC 6258 came out at 4.5 µg/mL (≈ 18.7 µM). Moreover, in [2], the MIC came to 20 µg/mL (≈ 83.2 µM) and the IC50 was found to be 10 µg/mL (≈ 41.6 µM).
As to `CC(=O)OC(/C=C/c1ccccc1)=C1/C(=O)C=C(C)C1=O` [Compound 8], the IC50 in data set [1] (setting [6]) is 4.5 µg/mL (≈ 15.9 µM); in the data set with C. albicans ATCC 90028 (Candida albicans, ATCC90028) it was 1 µg/mL (≈ 3.54 µM); with C. glabrata ATCC 90030 (setting [9]) it was 5.5 µg/mL (≈ 19.5 µM); in the data set on C. krusei ATCC 6258, 9 µg/mL (≈ 31.9 µM); in data set [2], 15 µg/mL (≈ 53.1 µM). Besides, the MIC in the data set with C. albicans ATCC 90028 (setting [8]) amounted to 10 µg/mL (≈ 35.4 µM); in data set [2], 20 µg/mL (≈ 70.8 µM). Moreover, the MBC in data set [2] was found to be 20 µg/mL (≈ 70.8 µM).
